The series can be described thus: Stability of chlorhexidine in simplified formulations by HPLC-UV after storage at 60°C. Format: physicochemical. Conditions: result in words; formulations with arginine versus without, 60°C for 42 days. On the procedure:
The following simplified formulations were used for these studies: […]
The stability of the formulations was measured by HPLC-UV after storage at 60°C for 42 days. The formulations were stored in PET bottles with PP caps.
Compositions 1-4 include arginine as a stabilising agent. […] In particular, compositions 1-4 and compositions 5-7 differ only in the presence or absence of arginine.

`N=C(N)NCCCC(N)C(=O)O` (stereo not shown) [arginine, 2-amino-5-guanidinopentanoic acid]: the “stability of the chlorhexidine” value is given as “improved the stability”.

Source of the values: EP3697380B1, “ORAL CARE PREPARATIONS COMPRISING CHLORHEXIDINE AND ARGININE OR THEIR SALTS” (priority 2019, dated 2020).
